# Test results as given in patent EP4129284B1, “SERTACONAZOL FOR PROVIDING A SPORISTATIC AND/OR SPORICIDAL EFFECT” (Dr. Pfleger Arzneimittel GmbH, priority 2021, dated 2023).
# How the values were obtained:
# C. albicans = experiment: Full skin model infected with spores, treatment, histology (PAS-staining); assay type: cell-based, Candida albicans; conditions: over 72 h, sertaconazol 800, ciclopiroxolamin 400, terbinafin 1600 µg/mL, Fig. 7
# Excerpt: (§1) For an application in vivo, there is the additional requirement for the antimycotic substances to evoke a targeted antimycotic activity in the presence of human cells. Thus, 3D-cell-cultures such as full skin models are used to simulate the in vivo conditions. Such full skin models are for example described in Reddersen K, Wiegand C, Elsner P, Hipler UC. Three-dimensional human skin model infected with Staphylococcus aureus as a tool for evaluation of bioactivity and biocompatibility of antiseptics. Int J Antimicrob Agents. 2019; 54(3):283-291; Wiegand C, Fink S, Beier O, Horn K, Pfuch A, Schimanski A, Grünler B, Hipler UC, Elsner P. Dose- and Time-Dependent Cellular Effects of Cold Atmospheric Pressure Plasma Evaluated in 3D Skin Models. Skin Pharmacol Physiol. 2016;29(5):257-265. Particularly, such full skin models are made of a collagen matrix, which is colonized with primary human fibroblasts, and a fully differentiated epidermis made of primary human keratinocytes. For the experiments, the model is infected in vitro with spores, such that a determination of the sporistatic or sporicidal influence of the substances to be examined at in vivo relevant conditions is allowed. Compared to a 2D-model, the 3D full skin model has the advantage that the cells are in their natural three-dimensional surrounding and show a corresponding behaviour. Such, the antimycotic and sporistatic or sporicidal effects can be examined in situ and in the presence of human cells.
# (§2) The spore suspensions and the solutions of sertaconazol, ciclopiroxolamin and terbinafin were prepared as in Example 1, wherein the respective test concentrations were obtained by diluting these solutions in ultrapure water (WFI; Fresenius Kabi) instead of SGB (Merck). Full skin models were produced as previously described [Reddersen K, Wiegand C, Elsner P, Hipler UC. […] 2019; 54(3):283-291; Wiegand C, Fink S, Beier O, Horn K, Pfuch A, Schimanski A, Grünler B, Hipler UC, Elsner P. Dose- and Time-Dependent Cellular Effects of Cold Atmospheric Pressure Plasma Evaluated in 3D Skin Models. […]
# S. brevicaulis = experiment: as above; assay type: cell-based, Scopulariopsis brevicaulis; conditions: 48 h and 72 h, sertaconazol 100, ciclopiroxolamin 400, terbinafin 100 µg/mL, Fig. 6, stated as 'the same applies' as for E. floccosum
# Excerpt: as §1, §2
# E. floccosum = experiment: Full skin model infected with spores, treatment, histology; assay type: cell-based, Epidermophyton floccosum; conditions: 48 h and 72 h, sertaconazol 0.010, ciclopiroxolamin 400, terbinafin 0.200 µg/mL
# Excerpt: as §1, §2
SMILES,outgrowth of C. albicans (C. albicans),outgrowth of S. brevicaulis (S. brevicaulis),outgrowth of E. floccosum (E. floccosum)
"Cc1cc(C2CCCCC2)n(O)c(=O)c1 [Ciclopiroxolamin, ciclopiroxolamin]",much lower effect,only reduced,only reduced
"Clc1ccc(C(Cn2ccnc2)OCc2csc3c(Cl)cccc23)c(Cl)c1 (stereo not drawn) [Sertaconazol, sertaconazol]",clearly reduced,inhibited,inhibited
"CN(C/C=C/C#CC(C)(C)C)Cc1cccc2ccccc12 [Terbinafin, terbinafin]",much lower effect,only reduced,only reduced
